Measured values as given in patent publication US10738015B2, “1,3-diaza-spiro-[3.4]-octane derivatives” (priority 2017, dated 2020).
Like-named read-outs stand apart in the source and are kept apart here.

Columns and labels:
[1] = molecular target: human nociceptin/orphanin FQ peptide (hNOP) receptor (Homo sapiens (Human), UniProt P41146); experiment: hNOP receptor binding assay (SPA)
Protocol: Human Nociceptin/Orphanin FQ Peptide (hNOP) Receptor Binding Assay
The hNOP receptor binding assay was performed as homogeneous SPA-assay (scintillation proximity assay) using the assay buffer 50 mM TRIS-HCl, 10 mM MgCl2, 1 mM EDTA (pH 7.4). The final assay volume (250 μl/well) included 0.5 nM of [leucyl-^3H]nociceptin as ligand (PerkinElmer Life Sciences. Inc. Boston, Mass. USA) and either test compound in dilution series or 1 μM unlabelled nociceptin for determination of unspecific binding. The test compound was diluted with 25% DMSO in H2O to yield a final 0.5% DMSO concentration which also served as a respective vehicle control. The assay was started by adding wheat germ agglutinin coated SPA beads (GE Healthcare UK Ltd. Buckinghamshire. UK) which had been preloaded with hNOP receptor membranes (PerkinElmer Life Sciences. Inc. Boston, Mass. USA). After incubation for 60 minutes at RT and centrifugation for 20 minutes at 500 rpm the signal rate was measured by means of a 1450 Microbeta Trilux ß-counter (PerkinElmer Life Sciences/Wallac. Turku. Finland). Half-maximal inhibitory concentration (IC50) values reflecting 50% displacement of [^3H]nociceptin-specific receptor binding were calculated by nonlinear regression analysis and Ki values were calculated by using the Cheng-Prusoff equation. (Cheng and Prusoff. 1973).

[2] = molecular target: human mu-opioid peptide (hMOP) receptor (Homo sapiens (Human), UniProt P35372); experiment: hMOP receptor binding assay (SPA)
Protocol: Human Mu-Opioidpeptide (hMOP) Receptor Binding Assay
The hMOP receptor binding assay was performed as homogeneous SPA-assay (scintillation proximity assay) using the assay buffer 50 mM TRIS-HCl (pH 7.4) supplemented with 0.052 mg/ml bovine serum albumin (Sigma-Aldrich Co. St. Louis, Mo.). […] The assay was started by adding wheat germ agglutinin coated SPA beads (GE Healthcare UK Ltd. Buckinghamshire. UK) which had been preloaded with hMOP receptor membranes (PerkinElmer Life Sciences. Inc. Boston, Mass. USA).

[3] = Ki, displacement of [leucyl-3H]nociceptin, hNOP receptor membranes, read-out: hNOP Ki [nM] or % inhibition at 1 μM
[4] = Ki, displacement of [3H]naloxone, hMOP receptor membranes, read-out: hMOP Ki [nM] or % inhibition at 1 μM

Chain of human mu-opioid peptide (hMOP) receptor (P35372 whole entry): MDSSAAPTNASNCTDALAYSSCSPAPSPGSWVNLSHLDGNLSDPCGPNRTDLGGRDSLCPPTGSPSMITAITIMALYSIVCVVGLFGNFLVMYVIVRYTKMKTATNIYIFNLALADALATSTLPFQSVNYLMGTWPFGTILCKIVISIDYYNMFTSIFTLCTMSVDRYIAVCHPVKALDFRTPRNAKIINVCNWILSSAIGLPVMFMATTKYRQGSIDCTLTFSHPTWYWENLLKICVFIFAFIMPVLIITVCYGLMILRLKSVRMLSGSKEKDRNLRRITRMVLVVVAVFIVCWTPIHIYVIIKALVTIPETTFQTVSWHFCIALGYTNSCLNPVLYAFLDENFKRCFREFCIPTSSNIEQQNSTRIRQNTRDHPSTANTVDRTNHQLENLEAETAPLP

Work on `CN(C)[C@]1(c2ccccc2)C[C@@]2(CN(c3cnc(-c4ccncc4)nc3)C(=O)N2CC2CC2)C1` [SC-43, Cis-5-(cyclopropylmethyl)-2-(dimethylamino)-2-phenyl-7-(2-pyridin-4-ylpyrimidin-5-yl)-5,7-diazaspiro[3.4]octan-6-one] yielded a Ki [1, 3] of 31 nM and a Ki [2, 4] of 83 nM.
`Cc1cc(C(C)(C)O)ccc1N1C[C@]2(C[C@](c3ccccc3)(N(C)C)C2)NC1=O` [SC-21, Cis-2-(dimethylamino)-7-(4-(2-hydroxypropan-2-yl)-2-methylphenyl)-2-phenyl-5,7-diazaspiro[3.4]octan-6-one] was tested, and the Ki [1, 3] was 775 nM and the Ki [2, 4] was 3580 nM.
`CN(C)[C@]1(c2ccccc2)C[C@@]2(CN(CCC#N)C(=O)N2CC2CC2)C1` [SC-45, Cis-3-[5-(cyclopropylmethyl)-2-(dimethylamino)-6-oxo-2-phenyl-5,7-diazaspiro[3.4]octan-7-yl]propanenitrile] was tested, and the Ki [1, 3] was 25 nM and the Ki [2, 4] was 37 nM.
`Cc1cc(N2CCC2)ncc1N1C[C@]2(C[C@](c3ccccc3)(N(C)C)C2)NC1=O` [SC-13, cis-7-(6-(azetidin-1-yl)-4-methylpyridin-3-yl)-2-(dimethylamino)-2-phenyl-5,7-diazaspiro[3.4]octan-6-one] gave a Ki [1, 3] of 860 nM and an inhibition at 1 µM ([2]; read-out: hMOP Ki [nM] or % inhibition at 1 μM) of 18%.
In the case of `CN(C)[C@]1(c2cccc(F)c2)C[C@@]2(CN(CC3(F)COC3)C(=O)N2CC2CC2)C1` [SC-33, Cis-5-(cyclopropylmethyl)-2-(dimethylamino)-7-((3-fluorooxetan-3-yl)methyl)-2-(3-fluorophenyl)-5,7-diazaspiro[3.4]octan-6-one], the Ki [1, 3] is reported as 23 nM and the Ki [2, 4] is reported as 115 nM.
In the case of `CN(C)[C@]1(c2ccccc2)C[C@@]2(CN(c3cncc(C(F)(F)F)c3)C(=O)N2CC2CC2)C1` [SC-39, Cis-5-(cyclopropylmethyl)-2-(dimethylamino)-2-phenyl-7-[5-(trifluoromethyl)pyridin-3-yl]-5,7-diazaspiro[3.4]octan-6-one], the Ki [1, 3] is reported as 5 nM and the Ki [2, 4] is reported as 48 nM.
Compound `CN(C)[C@]1(c2ccccc2)C[C@]2(CN(CC(N)=O)C(=O)N2CC2CCC2)C1` [SC-9, Trans-2-(5-(cyclobutylmethyl)-2-(dimethylamino)-6-oxo-2-phenyl-5,7-diazaspiro[3.4]octan-7-yl)acetamide] has a Ki [1, 3] of 380 nM and a Ki [2] of 48 nM.
Work on `Cc1cc(C(F)F)ncc1N1C[C@]2(C[C@](c3cccc(F)c3)(N(C)C)C2)N(CC2CC2)C1=O` [SC-24, Cis-5-(cyclopropylmethyl)-7-(6-(difluoromethyl)-4-methylpyridin-3-yl)-2-(dimethylamino)-2-(3-fluorophenyl)-5,7-diazaspiro[3.4]octan-6-one] yielded a Ki [1, 3] of 23 nM and a Ki [2, 4] of 1180 nM.
With `CN(C)[C@]1(c2ccccc2)C[C@@]2(CN(c3ccc(OC(F)(F)F)cn3)C(=O)N2CC2CC2)C1` [SC-32, Cis-5-(cyclopropylmethyl)-2-(dimethylamino)-2-phenyl-7-(5-(trifluoromethoxy)pyridin-2-yl)-5,7-diazaspiro[3.4]octan-6-one] the Ki [1, 3] was 36 nM and the Ki [2, 4] was 100 nM.
`Cc1cc(C(C)(C)O)ncc1N1C[C@]2(C[C@](c3ccccc3)(N(C)C)C2)NC1=O` [SC-20, Cis-2-(dimethylamino)-7-(6-(2-hydroxypropan-2-yl)-4-methylpyridin-3-yl)-2-phenyl-5,7-diazaspiro[3.4]octan-6-one] was tested, and the Ki [1, 3] was 1160 nM and the Ki [2, 4] was 5840 nM.
For `CN(C)[C@]1(c2ccccc2)C[C@@]2(CN(CC3(O)CCC3)C(=O)N2CC2CC2)C1` [SC-46, Cis-5-(cyclopropylmethyl)-2-(dimethylamino)-7-[(1-hydroxycyclobutyl)methyl]-2-phenyl-5,7-diazaspiro[3.4]octan-6-one], the Ki [1, 3] was 29 nM and the Ki [2, 4] was 48 nM.
For `CN(C)[C@]1(c2cccc(F)c2)C[C@@]2(CN(Cc3ccc(N4CCOCC4)cc3)C(=O)N2)C1` [SC-41, cis-2-(dimethylamino)-2-(3-fluorophenyl)-7-(4-morpholinobenzyl)-5,7-diazaspiro[3.4]octan-6-one], the Ki [1] was 21 nM and the Ki [2, 4] was 465 nM.
`CN(C)[C@]1(c2ccccc2)C[C@]2(CN(CC(=O)N3CCS(=O)(=O)CC3)C(=O)N2)C1` [SC-4, trans-2-(dimethylamino)-7-(2-(1,1-dioxidothiomorpholino)-2-oxoethyl)-2-phenyl-5,7-diazaspiro[3.4]octan-6-one] was tested, and the Ki [1, 3] was 860 nM and the Ki [2, 4] was 15 nM.
For `CN(C)[C@]1(c2cccc(F)c2)C[C@@]2(CN(CC3(O)CCC3)C(=O)N2CC2CC2)C1` [SC-42, Cis-5-(cyclopropylmethyl)-2-(dimethylamino)-2-(3-fluorophenyl)-7-[(1-hydroxycyclobutyl)methyl]-5,7-diazaspiro[3.4]octan-6-one], the Ki [1, 3] was 21 nM and the Ki [2, 4] was 125 nM.
`CN(C)[C@]1(c2ccccc2)C[C@@]2(CN(c3cnc(C#N)c(C(F)(F)F)c3)C(=O)N2CC2CC2)C1` [SC-40, Cis-5-[5-(cyclopropylmethyl)-2-(dimethylamino)-6-oxo-2-phenyl-5,7-diazaspiro[3.4]octan-7-yl]-3-(trifluoromethyl)pyridine-2-carbonitrile] was tested, and the Ki [1, 3] was 6 nM and the Ki [2, 4] was 102 nM.
For `CN(C)[C@]1(c2cccc(F)c2)C[C@@]2(CN(c3ccc(C(C)(C)O)cc3)C(=O)N2CC2CC2)C1` [SC-28, Cis-5-(cyclopropylmethyl)-2-(dimethylamino)-2-(3-fluorophenyl)-7-(4-(2-hydroxypropan-2-yl)phenyl)-5,7-diazaspiro[3.4]octan-6-one], the Ki [1, 3] was 46 nM and the Ki [2, 4] was 78 nM.
`CN(C)[C@]1(c2ccccc2)C[C@@]2(CN(c3ccc(C4CC4)nc3)C(=O)N2CC2CC2)C1` [SC-34, Cis-5-(cyclopropylmethyl)-7-(6-cyclopropylpyridin-3-yl)-2-(dimethylamino)-2-phenyl-5,7-diazaspiro[3.4]octan-6-one] gave a Ki [1, 3] of 17 nM and a Ki [2, 4] of 50 nM.
